Among the test systems are ACHN; BT-549; EKVX; HCT-15; HOP-92; HT-29; IGROV-1; KM12; M14; MCF7; NCI-H226; OVCAR-4; OVCAR-5; RXF 393; SF-268; SF-295; SNB-19; UACC-62; UO-31; Malme-3M.
Holding throughout (assay): inhibition of tumour cell growth, NCI panel, 48 h

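The compound was tested at five concentrations on cells cultured in 96-well plates, with a 48-hour exposure period. At the GI50, growth is halved.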 Active and inactive are the calls of the source. Cut-off read from the data, not from the text of the source: active = GI50 up to about 1.1 µM and inactive = higher. Peptide text beside a SMILES is read from it. * marks the point of attachment. OSu = O=C1CCC(=O)N1O*

Consider `COC(=O)c1ccc(CCC2=CC(=O)C=CC2=O)cc1`, for which the GI50 in the experiment on ACHN is 7.71 µM (inactive); in the experiment with BT-549, 12 µM (inactive); with EKVX, 16 µM (inactive); in the experiment on HCT-15, 5.52 µM; with HOP-92 it was 4.43 µM (inactive); in the experiment on HT-29, 23.1 µM (inactive). In addition, the GI50 was 14.6 µM (inactive) with IGROV-1; 11.9 µM (inactive) in the experiment with KM12; 15.1 µM (inactive) with M14; 6.59 µM (inactive) in the experiment with MCF7; 16.7 µM (inactive) with NCI-H226; 17.7 µM (inactive) in the experiment with OVCAR-4. Moreover, the GI50 with OVCAR-5 is 18.2 µM (inactive); in the experiment on RXF 393 it was 12.5 µM (inactive); with SF-268 it was 15 µM (inactive); in the experiment on SF-295 it was 16.6 µM (inactive); in the experiment with SNB-19, 22.4 µM (inactive); with UACC-62, 13.7 µM (inactive). Moreover, in the experiment on UO-31, the GI50 was 7.36 µM (inactive).
As to `O=[N+]([O-])c1ccc(NN=C2CN3CCN(C2)c2ccccc23)c([N+](=O)[O-])c1`, the GI50 was > 100 µM (inactive) with ACHN; > 100 µM (inactive) with BT-549; 40.6 µM (inactive) in the experiment on EKVX; greater than 100 µM with HCT-15; 85.3 µM (inactive) with HOP-92; > 100 µM (inactive) in the experiment with HT-29. In addition, the GI50 was 97.3 µM (inactive) in the experiment on IGROV-1; > 100 µM (inactive) in the experiment on KM12; > 100 µM (inactive) with M14; > 100 µM (inactive) in the experiment with MCF7; > 100 µM (inactive) in the experiment with Malme-3M; > 100 µM (inactive) in the experiment with OVCAR-4. In addition, the GI50 with OVCAR-5, in the experiment on SF-268, in the experiment on SF-295, in the experiment on SNB-19, with UACC-62 and with UO-31 was > 100 µM (inactive) in each case.
Turning to `N=c1c2ccccc2nc2oc3ccccc3n12`, the GI50 in the experiment with ACHN is 30.5 µM (inactive); in the experiment with BT-549, 51.2 µM (inactive); in the experiment on EKVX it was 1.91 µM (inactive); in the experiment on HCT-15 it was greater than 100 µM; in the experiment on HOP-92, 26.5 µM (inactive); in the experiment on HT-29, > 100 µM (inactive). The GI50 in the experiment on IGROV-1 is 20.6 µM (inactive); with MCF7 it was 45.1 µM (inactive); in the experiment with Malme-3M it was 41.1 µM (inactive); with OVCAR-4, 29 µM (inactive); with OVCAR-5, 45.3 µM (inactive); with SF-268, 14.9 µM (inactive). Moreover, the GI50 was > 100 µM (inactive) in the experiment with SF-295, 25.5 µM (inactive) in the experiment on SNB-19, 28.6 µM (inactive) in the experiment on UACC-62 and > 100 µM (inactive) in the experiment on UO-31.
On to `C=C1CC2(C)CCC(OC(=O)C3(C)OC3C)C(C)(OC(C)=O)C2CC1=C(C)C` (stereo not given), for which the GI50 with ACHN was > 100 µM (inactive); in the experiment on BT-549, > 100 µM (inactive); with EKVX it was > 100 µM (inactive); in the experiment with HCT-15 it was greater than 100 µM; with HOP-92, > 100 µM (inactive); in the experiment with HT-29 it was > 100 µM (inactive). The GI50 with IGROV-1, in the experiment with KM12, in the experiment on M14, with MCF7, in the experiment on Malme-3M and with OVCAR-4 was > 100 µM (inactive) each time. The GI50 in the experiment on OVCAR-5, in the experiment on RXF 393, in the experiment with SF-268, in the experiment with SF-295, in the experiment with SNB-19 and in the experiment on UACC-62 was > 100 µM (inactive) each time. For the same molecule, the GI50 in the experiment with UO-31 is > 100 µM (inactive).
For the molecule `O=C(O)/C(=C/c1ccccc1)c1ccccc1`, the GI50 in the experiment on ACHN was > 100 µM (inactive); in the experiment with BT-549, > 100 µM (inactive); with EKVX it was > 100 µM (inactive); with HCT-15, greater than 100 µM; with HOP-92 it was 46.6 µM (inactive); in the experiment with HT-29, > 100 µM (inactive). Moreover, the GI50 in the experiment with IGROV-1, in the experiment on KM12, in the experiment on M14, with MCF7, in the experiment with Malme-3M and with OVCAR-4 was > 100 µM (inactive) each time. In addition, the GI50 in the experiment on OVCAR-5, in the experiment with RXF 393, with SF-268, with SF-295, with SNB-19 and in the experiment on UACC-62 was > 100 µM (inactive) each time. For the same molecule, the GI50 in the experiment with UO-31 was > 100 µM (inactive).
With `CC(=O)Oc1ccc2c(c1)Oc1cc(C(C)=O)ccc1C21OC(=O)c2ccccc21` (stereo not given), the GI50 is > 100 µM (inactive) in the experiment on ACHN; > 100 µM (inactive) with BT-549; > 100 µM (inactive) with EKVX; greater than 100 µM in the experiment on HCT-15; > 100 µM (inactive) in the experiment with HOP-92; > 100 µM (inactive) in the experiment with HT-29. In addition, the GI50 with IGROV-1 was 85.5 µM (inactive); in the experiment with KM12 it was > 100 µM (inactive); with M14 it was > 100 µM (inactive); in the experiment with MCF7 it was > 100 µM (inactive); in the experiment with Malme-3M, > 100 µM (inactive); in the experiment on OVCAR-4, > 100 µM (inactive). The GI50 in the experiment on OVCAR-5 is > 100 µM (inactive); with RXF 393, 39.7 µM (inactive); in the experiment on SF-268 it was 1.8 µM (inactive); in the experiment on SF-295, > 100 µM (inactive); in the experiment with SNB-19, > 100 µM (inactive); in the experiment on UACC-62 it was > 100 µM (inactive). In addition, the GI50 with UO-31 was 85.5 µM (inactive).
On to `C/C=C(\C)C(=O)OC1CC(OC(C)=O)C2(C(=O)OC)COC3C2C1(C)C1C2(C(=O)OC)OCC1(C3O)C1(O)C3CC(C4(O)C=COC4O3)C1(C)O2` (stereo not given), for which the GI50 was > 100 µM (inactive) in the experiment on ACHN; > 100 µM (inactive) in the experiment on BT-549; > 100 µM (inactive) with EKVX; greater than 100 µM in the experiment with HCT-15; > 100 µM (inactive) in the experiment with HOP-92; > 100 µM (inactive) with HT-29. The GI50 in the experiment on IGROV-1, in the experiment with KM12, in the experiment with M14, in the experiment on MCF7, with NCI-H226 and in the experiment on OVCAR-4 was > 100 µM (inactive) each time. For the same molecule, the GI50 in the experiment on OVCAR-5, in the experiment with RXF 393, in the experiment with SF-268, in the experiment with SF-295, in the experiment on UACC-62 and with UO-31 was > 100 µM (inactive) each time.
Turning to `O=C1NC(O)CCN1C1CC(O)C(CO)O1` (stereo not given), the GI50 in the experiment on ACHN was > 100 µM (inactive); with BT-549 it was > 100 µM (inactive); with EKVX, > 100 µM (inactive); in the experiment with HCT-15, greater than 100 µM; in the experiment with HOP-92, > 100 µM (inactive); in the experiment with IGROV-1 it was > 100 µM (inactive). Besides, the GI50 is 74.1 µM (inactive) in the experiment on KM12; > 100 µM (inactive) in the experiment on M14; > 100 µM (inactive) with MCF7; > 100 µM (inactive) in the experiment on Malme-3M; > 100 µM (inactive) in the experiment with NCI-H226; > 100 µM (inactive) with OVCAR-5. Further, the GI50 in the experiment with RXF 393, in the experiment on SF-268, in the experiment on SF-295, in the experiment with SNB-19, in the experiment with UACC-62 and in the experiment with UO-31 was > 100 µM (inactive) throughout.
With `C=CCSC1=N/C(=C\c2ccc(Cl)cc2)C(=O)N1CC=C`, the GI50 in the experiment with ACHN is 32.6 µM (inactive); with BT-549, 23.5 µM (inactive); in the experiment with EKVX it was 17.1 µM (inactive); in the experiment with HCT-15, 28.2 µM; in the experiment on HOP-92, 22.1 µM (inactive); with HT-29, 30.5 µM (inactive). In addition, the GI50 with IGROV-1 is 53.8 µM (inactive); in the experiment with KM12 it was 24.9 µM (inactive); in the experiment with M14, 66.2 µM (inactive); in the experiment on MCF7 it was 18.9 µM (inactive); in the experiment on OVCAR-4, 21.5 µM (inactive); with OVCAR-5, 63.8 µM (inactive). Besides, the GI50 is 19.8 µM (inactive) with RXF 393; 40.6 µM (inactive) in the experiment on SF-268; 34.8 µM (inactive) in the experiment on SF-295; 91.4 µM (inactive) with SNB-19; 30.2 µM (inactive) in the experiment with UACC-62; 34.7 µM (inactive) in the experiment on UO-31.
For `c1ccc2c(c1)nc1n2CCNC1`, the GI50 in the experiment with ACHN was > 100 µM (inactive); with BT-549, > 100 µM (inactive); in the experiment with EKVX, > 100 µM (inactive); with HCT-15, greater than 100 µM; in the experiment with HOP-92, > 100 µM (inactive); in the experiment on HT-29 it was > 100 µM (inactive). The GI50 in the experiment on IGROV-1, in the experiment on KM12, in the experiment on M14, with MCF7, in the experiment on NCI-H226 and in the experiment on OVCAR-4 was > 100 µM (inactive) throughout. The GI50 in the experiment with OVCAR-5, in the experiment with RXF 393, in the experiment with SF-268, in the experiment on SF-295, in the experiment with SNB-19 and in the experiment on UACC-62 was > 100 µM (inactive) in each case. In the experiment with UO-31, the GI50 is > 100 µM (inactive).
In the case of `NCCCCC(NC(=O)C(N)Cc1ccc(O)cc1)C(=O)NC(Cc1ccc(O)cc1)C(=O)NC(CCCCN)C(=O)ON1C(=O)CCC1=O` (stereo not given) (H-YKYK-OSu; configuration not given here), the GI50 is > 100 µM (inactive) in the experiment with ACHN; > 100 µM (inactive) with BT-549; > 100 µM (inactive) in the experiment with EKVX; greater than 100 µM in the experiment with HCT-15; > 100 µM (inactive) in the experiment with HOP-92; > 100 µM (inactive) in the experiment with HT-29. In addition, the GI50 in the experiment on IGROV-1, with KM12, in the experiment with M14, with MCF7, with Malme-3M and in the experiment on NCI-H226 was > 100 µM (inactive) throughout. In addition, the GI50 in the experiment on OVCAR-5, in the experiment on RXF 393, with SNB-19, with UACC-62 and in the experiment with UO-31 was > 100 µM (inactive) each time.

The values are drawn from ChEMBL document CHEMBL1201862, “PubChem BioAssay data set” (2004).
